Data as given in PMC7006637, “Design, synthesis and α-glucosidase inhibition study of novel embelin derivatives” (Journal of Enzyme Inhibition and Medicinal Chemistry, 2020).

The compounds below were run on α-glucosidase (assay: Enzyme kinetic study, Lineweaver–Burk double-reciprocal plots). Settings: Lineweaver–Burk plots; PNPG 0.2-1 mM, enzyme 0.7 U/ml.
Assay type: biochemical, Saccharomyces cerevisiae
Procedure: The inhibition type of the enzyme was assayed by Lineweaver–Burk plots. A series of diluted inhibitor solutions was prepared, at constant α-glucosidase concentration (0.7 U/ml). The inhibition rates were measured by the above method with different concentrations of PNPG (1, 0.5, 0.4, 0.3, 0.25, and 0.2 mM). […] The kinetic data were expressed by Lineweaver–Burk double-reciprocal plots. […] Thus, these compounds bind not only with the free α-glucosidase but also with the α-glucosidase-PNPG complex. In other words, they inhibit the function of α-glucosidase by not only directly binding to free enzyme (EI), but also by interfering with the formation of the α-glucosidase-PNPG (ES) intermediate through producing an α-glucosidase-PNPG-inhibitor (ESI) complex in a non-competitive manner. The inhibition constant for the inhibitor binding with free enzyme (Ki) was determined from a plot of the slope (Km/Vm) versus the inhibitor concentration (Figure 6(A2–D2)), and the inhibition constant for the inhibitor binding with enzyme–substrate complex (Kis) was obtained from the vertical intercept (1/Vm) versus the inhibitor concentration (Figure 6(A3–D3))[34]. The results are collected in Table 3: the Kis values of all of them are smaller than their Ki values, which mean that they have higher affinity with the enzyme-substrate complex than with the free enzyme.

Inhibition type | SMILES
Mixed-type | CCCCCCCCCCCC1=C(O)C(=O)C=C(O)C1=O [Embelin, 2,5-dihydroxy-3-undecyl-1,4-benzoquinone]
Mixed-type | O=C1C=C(O)C(=O)C(CCCCCCCc2ccccc2)=C1O [Compound 15d]
Mixed-type | CC(C)CCCC(C)CCC1=C(O)C(=O)C=C(O)C1=O (centres unmarked) [Compound 12d]
Mixed-type | CCCCCCCCCCCCCCCC1=C(O)C(=O)C=C(O)C1=O [Compound 10d]

Same assay, conditions: from plot of slope (Km/Vm) versus inhibitor concentration; PNPG substrate; read-out: Ki value (inhibitor binding with free enzyme)

Ki [µM] | SMILES
3.72 | CCCCCCCCCCCC1=C(O)C(=O)C=C(O)C1=O [Embelin, 2,5-dihydroxy-3-undecyl-1,4-benzoquinone]
2.4 | O=C1C=C(O)C(=O)C(CCCCCCCc2ccccc2)=C1O [Compound 15d]
3.71 | CC(C)CCCC(C)CCC1=C(O)C(=O)C=C(O)C1=O (centres unmarked) [Compound 12d]
1.24 | CCCCCCCCCCCCCCCC1=C(O)C(=O)C=C(O)C1=O [Compound 10d]

What follows are compounds tested on α-glucosidase (assay: Inhibition mechanism: enzyme activity versus enzyme concentration plots). Settings: constant PNPG 1 mM; α-glucosidase 0.00-1.05 U/ml.
Assay type: biochemical, Saccharomyces cerevisiae
Procedure: The inhibition mechanism of 10d, 12d, and 15d was determined by the following method: A series of diluted inhibitor solutions was prepared, at constant PNPG concentration (1 mM). The inhibition rates were measured by the above method with different concentrations of α-glucosidase (0.00, 0.35, 0.7, and 1.05 U/ml). […] Because the chemical structures of compounds 9d and 10d are very similar, compound 10d was selected as a representative in the next mechanism studies. The inhibition mechanism of the selected compounds 10d, 12d, 15d, and embelin on α-glucosidase was investigated using PNPG as the substrate. The relationship between enzyme activity and concentration in the presence of different concentrations of selected compounds was studied. […] Therefore, the inhibition of compounds 10d, 12d, 15d, and embelin against α-glucosidase is reversible.

Inhibition mechanism (reversibility) | SMILES
reversible | CCCCCCCCCCCC1=C(O)C(=O)C=C(O)C1=O [Embelin, 2,5-dihydroxy-3-undecyl-1,4-benzoquinone]
reversible | O=C1C=C(O)C(=O)C(CCCCCCCc2ccccc2)=C1O [Compound 15d]
reversible | CC(C)CCCC(C)CCC1=C(O)C(=O)C=C(O)C1=O (centres unmarked) [Compound 12d]
reversible | CCCCCCCCCCCCCCCC1=C(O)C(=O)C=C(O)C1=O [Compound 10d]

What follows are compounds tested on α-glucosidase (assay: α-glucosidase inhibition assay (PNPG substrate, OD 405 nm)). Settings: SAR discussion.
Assay type: biochemical, Saccharomyces cerevisiae
Procedure: The α-glucosidase inhibitory activity was determined on a Thermo Scientific Multiskan GO Microplate Reader. All compounds were dissolved in DMSO. p-Nitrophenol glucoside (PNPG) as a substrate and α-glucosidase (from Saccharomyces cerevisiae) were used for the bioassay. First, 0.7 U/ml α-glucosidase solution and 1 mmol/L PNPG solution in 0.1 M PBS (pH 6.8) were prepared. Next, 35 µl of 0.1 M PBS (pH 6.8), 10 µl of 0.7 U/ml α-glucosidase solution (final concentration: 0.07 U/ml), and 5 µl of sample solution were added to the 96-well plate. The mixture was pre-incubated for 10 min at 37 °C. Then, 50 µl of 1 mM PNPG (final concentration: 0.5 mM) was rapidly added to initiate the reaction. Then the 96-well plate was quickly transferred into the microplate reader, incubated at 37 °C for 30 min (1 min shake + 9 min incubation, repeated 3 times). After that, 50 µl of 1 M of Na2CO3 solution was added to each well to stop the reaction. The 96-well plate was quickly transferred into the microplate reader and shaken for 30 s. In the blank reference group, 5 µl DMSO replaced the sample solution, other operations were the same. The OD value was measured at 405 nm. The inhibition rate was calculated by Equation (1). (1) Inhibition rate (%) = [(A0−A1)/A0] × 100 where A0 is the OD of the control, and A1 is the OD of the sample. […] The IC50 values were calculated by GraphPad Prism 7.0 software.

α-glucosidase inhibitory activity (in words) | SMILES
very low inhibitory effect | CCCC1=C(O)C(=O)C=C(O)C1=O [Compound 4d]
very low inhibitory effect | CCCCCC1=C(O)C(=O)C=C(O)C1=O [Compound 5d]

Same assay, conditions: compound at 250 μM; 0.07 U/ml enzyme, 0.5 mM PNPG, pH 6.8, 37 °C

SMILES | Inhibition rate [%]
CCCCCCCCCCCC1=C(O)C(=O)C=C(OC)C1=O [Compound 8b] | 12.0
CCCC1=C(OC)C(=O)C=C(OC)C1=O [Compound 4a] | 9.0
CCCCCCCC1=C(O)C(=O)C=C(O)C1=O [Compound 6d] | 80.8
CCCCCC1=C(O)C(=O)C=C(OC)C1=O [Compound 5b] | 14.9
CCCC1=C(O)C(=O)C=C(O)C1=O [Compound 4d] | 18.1
CCCCCCCCCCCC1=C(O)C(=O)C=C(O)C1=O [Embelin, 2,5-dihydroxy-3-undecyl-1,4-benzoquinone] | 100
CCCCCC1=C(OC)C(=O)C=C(OC)C1=O [Compound 5a] | 11.5
CCCCCCCCCC1=C(OC)C(=O)C=C(OC)C1=O [Compound 7a] | 13.5
CCCC1=C(O)C(=O)C=C(OC)C1=O [Compound 4b] | 10.4
CCCCCCCCCCCCCC1=C(O)C(=O)C=C(O)C1=O [Compound 9d] | 100
CCCCCCCCCC1=C(O)C(=O)C=C(OC)C1=O [Compound 7b] | 20.9
CCCC1=C(OC)C(OC)=CC(=O)C1=O [Compound 4c] | 14.9
CCCCCCCCCC1=C(OC)C(OC)=CC(=O)C1=O [Compound 7c] | 33.2
CCCCCCCCCCCC1=C(OC)C(OC)=CC(=O)C1=O [Compound 8c] | 0.6
CCCCCCCCCC1=C(O)C(=O)C=C(O)C1=O [Compound 7d] | 99.4
CCCCCCCCCCCC1=C(OC)C(=O)C=C(OC)C1=O [Compound 8a] | 12.5
CCCCCCCC1=C(OC)C(=O)C=C(OC)C1=O [Compound 6a] | 1.5
CCCCCCCC1=C(O)C(=O)C=C(OC)C1=O [Compound 6b] | 5.4
CCCCCC1=C(O)C(=O)C=C(O)C1=O [Compound 5d] | 19.0
CCCCCC1=C(OC)C(OC)=CC(=O)C1=O [Compound 5c] | 16.4
CCCCCCCC1=C(OC)C(OC)=CC(=O)C1=O [Compound 6c] | 16.1

Next, values leading:

Inhibition rate [%] | SMILES
37.2 | COC1=CC(=O)C(=O)C(Cc2ccc3ccccc3c2)=C1OC [Compound 16c]
74.7 | COC1=CC(=O)C(=O)C(CCC2CCCCC2)=C1OC [Compound 14c]
0 | COCCCC1=C(OC)C(=O)C=C(OC)C1=O [Compound 13a]
5.1 | COC1=CC(=O)C(OC)=C(Cc2ccc(-c3ccccc3)cc2)C1=O [Compound 17a]
70.1 | COC1=CC(=O)C(OC)=C(CCC2CCCCC2)C1=O [Compound 14a]
1.5 | COC1=CC(=O)C(OC)=C(CCC(C)C)C1=O [Compound 11a]
99.5 | O=C1C=C(O)C(=O)C(Cc2ccc(-c3ccccc3)cc2)=C1O [Compound 17d]
14.3 | COC1=CC(=O)C(O)=C(Cc2ccc(-c3ccccc3)cc2)C1=O [Compound 17b]
6.0 | COC1=CC(=O)C(OC)=C(Cc2ccc3ccccc3c2)C1=O [Compound 16a]
85.2 | O=C1C=C(O)C(=O)C(CCC2CCCCC2)=C1O [Compound 14d]
59.7 | COC1=CC(=O)C(=O)C(Cc2ccc(-c3ccccc3)cc2)=C1OC [Compound 17c]
81.4 | O=C1C=C(O)C(=O)C(Cc2ccc3ccccc3c2)=C1O [Compound 16d]
100 | O=C1C=C(O)C(=O)C(CCCCCCCc2ccccc2)=C1O [Compound 15d]
37.6 | CC(C)CCC1=C(O)C(=O)C=C(O)C1=O [Compound 11d]
71.1 | COC1=CC(=O)C(O)=C(CCC2CCCCC2)C1=O [Compound 14b]
4.3 | COC1=CC(=O)C(O)=C(Cc2ccc3ccccc3c2)C1=O [Compound 16b]
3.3 | COC1=CC(=O)C(=O)C(CCC(C)C)=C1OC [Compound 11c]
0 | COCCCC1=C(O)C(=O)C=C(OC)C1=O [Compound 13b]
0 | COCCCC1=C(O)C(=O)C=C(O)C1=O [Compound 13d]
0 | COCCCC1=C(OC)C(OC)=CC(=O)C1=O [Compound 13c]
100 | CC(C)CCCC(C)CCC1=C(O)C(=O)C=C(O)C1=O (centres unmarked) [Compound 12d]
100 | CCCCCCCCCCCCCCCC1=C(O)C(=O)C=C(O)C1=O [Compound 10d]
2.6 | COC1=CC(=O)C(O)=C(CCC(C)C)C1=O [Compound 11b]

Same assay, conditions: more than eight concentrations; GraphPad Prism 7.0

SMILES | IC50 [µM]
CCCCCCCC1=C(O)C(=O)C=C(O)C1=O [Compound 6d] | 127
CCCCCCCCCCCC1=C(O)C(=O)C=C(O)C1=O [Embelin, 2,5-dihydroxy-3-undecyl-1,4-benzoquinone] | 4.2
CCCCCCCCCCCCCC1=C(O)C(=O)C=C(O)C1=O [Compound 9d] | 2.3
CCCCCCCCCC1=C(O)C(=O)C=C(O)C1=O [Compound 7d] | 5.7

Next, values leading:

IC50 [µM] | SMILES
11.2 | O=C1C=C(O)C(=O)C(Cc2ccc(-c3ccccc3)cc2)=C1O [Compound 17d]
45.3 | O=C1C=C(O)C(=O)C(CCC2CCCCC2)=C1O [Compound 14d]
74.8 | O=C1C=C(O)C(=O)C(Cc2ccc3ccccc3c2)=C1O [Compound 16d]
3.6 | O=C1C=C(O)C(=O)C(CCCCCCCc2ccccc2)=C1O [Compound 15d]
3.3 | CC(C)CCCC(C)CCC1=C(O)C(=O)C=C(O)C1=O (centres unmarked) [Compound 12d]
1.8 | CCCCCCCCCCCCCCCC1=C(O)C(=O)C=C(O)C1=O [Compound 10d]
